Common to all, as to assay: NCI tumour cell line growth inhibition, 48 h
Assay [1] relates to CCRF-CEM leukemia.
Assay [2] concerns A498 renal.
Assay [3] deals with SK-MEL-5 melanoma.
Assay [4] has as its system TK-10 renal.
Assay [5] has as its system M19-MEL melanoma.
The test system of assay [6] is ACHN renal.
For assay [7], the system named is HCT-15 colon.
Assay [8] relates to OVCAR-4 ovarian.
Assay [9] concerns NCI-H522 lung.
The subject of assay [10] is K-562 leukemia.
Assay [11] relates to U251 CNS.
For assay [12], the system named is HOP-92 NSCLC.
In assay [13] the test system is SN12C renal.
For assay [14], the system named is SR leukemia.
In assay [15] the test system is A549 NSCLC.
The test system of assay [16] is MOLT-4 leukemia.

SMILES strings stand for the structures.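 Tested at 5 concentrations; 48 h exposure; 96-well plates; endpoints linearly interpolated, else capped at highest concentration. At the TGI there is no net growth.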

For the compound `C=C(C)C1Cc2c(cc(OC)c3c(=O)c4ccccc4n(C)c23)O1` (stereo unspecified), the TGI in [1], in [2], in assay [3], in [4], in assay [5] and in assay [6] was above 100 µM throughout. Besides, the TGI was above 100 µM in assay [7]; above 100 µM in assay [8]; 34.3 µM in [9]; above 100 µM in assay [10]; above 100 µM in [11]; above 100 µM in [12]. Further, the TGI in [13], in [14] and in [15] was above 100 µM throughout.
On to `C[N+](C)(C)CC(=O)N/N=C/c1oc(-c2cccc([N+](=O)[O-])c2)c(-c2cccc([N+](=O)[O-])c2)c1[N+](=O)[O-]`, for which the TGI in [1], in [2], in assay [3], in assay [4], in [5] and in assay [6] was above 100 µM throughout. In addition, the TGI in [8], in assay [9], in assay [12], in assay [13], in [14] and in assay [15] was above 100 µM in each case.
Regarding `CN(C(=O)C12C3C4C1C1C2C3C41C(=O)N(C)C(C)(C)C)C(C)(C)C` (stereo unspecified), the TGI in assay [1], in assay [2], in assay [3], in [5], in assay [6] and in [7] was above 50 µM in each case. Besides, the TGI in [9], in [10], in [11], in [12], in assay [13] and in assay [16] was above 50 µM throughout. In addition, the TGI in assay [14] and in assay [15] was above 50 µM in each case.
Consider `O=S(=O)(c1ccccc1)n1cnc(CCc2ccccc2)n1`, for which the TGI in [1], in assay [2], in [3], in [4], in [5] and in assay [6] was above 100 µM throughout. Besides, the TGI in assay [7], in [8], in [9], in assay [10], in [11] and in [12] was above 100 µM in each case. Besides, the TGI in assay [13], in assay [16], in assay [14] and in assay [15] was above 100 µM each time.
`Cc1no[n+]([O-])c1/C=N/NS(=O)(=O)c1ccccc1`: the TGI in [2], in assay [3], in assay [4], in assay [5], in [7] and in assay [8] was above 100 µM in each case. In addition, the TGI in [9], in assay [10], in [11], in [12], in [13] and in assay [16] was above 100 µM throughout. The TGI in assay [14] and in [15] was above 100 µM each time.
On to `C=CC(Br)(CBr)CCC(Br)C(C)(C)Br` (stereo unspecified), for which the TGI amounted to 27.8 µM in assay [3]; 30.3 µM in assay [4]; 27.4 µM in assay [5]; 25.3 µM in assay [6]; 31.8 µM in [7]; 32.3 µM in [8]. Besides, the TGI stood at 30.1 µM in assay [9]; 66 µM in [10]; 27.6 µM in assay [11]; 29.9 µM in assay [12]; 29.7 µM in [13]; 35.8 µM in assay [16]. Also, the TGI in [14] worked out at 21.5 µM; in assay [15], 29.8 µM.
Turning to `Cc1ccc(S(=O)(=O)C(C#N)c2nc3ccccc3nc2N2CCOCC2)cc1` (stereo unspecified), the TGI in assay [1] was 62.2 µM; in assay [2], above 100 µM; in [3] it was above 100 µM; in [4], above 100 µM; in assay [5], 81.6 µM; in assay [6], above 100 µM. For the same compound, the TGI is above 100 µM in assay [7]; 37.4 µM in [8]; 37.3 µM in [9]; 35.8 µM in [11]; 96.4 µM in assay [13]; 58.7 µM in [16]. Besides, the TGI in assay [14] and in assay [15] was above 100 µM each time.
As to `Cc1ccc(SC2C(C)(C)N(C(C)C)P2(=O)N(C(C)C)C(C)C)cc1` (stereo unspecified), the TGI is above 55.7 µM in assay [1]; above 100 µM in assay [2]; above 100 µM in assay [3]; above 100 µM in assay [4]; above 86.6 µM in assay [5]; above 100 µM in assay [6]. Also, the TGI in assay [7] was above 100 µM; in assay [8], above 100 µM; in assay [9], above 74.2 µM; in assay [10], above 52.4 µM; in assay [11] it was above 100 µM; in [12] it was 58.3 µM. Further, the TGI was above 100 µM in assay [13], above 59.3 µM in assay [16], 31.4 µM in assay [14] and above 70.8 µM in assay [15].
Take `COC(=O)NN/C=C(\C=Nc1ccccc1)[N+](=O)[O-]`: the TGI in assay [1], in assay [3], in assay [4], in assay [5], in assay [6] and in assay [7] was above 100 µM in each case. Further, the TGI in [8], in assay [9], in assay [10], in [11], in assay [12] and in [13] was above 100 µM in each case. Further, the TGI in assay [16], in assay [14] and in assay [15] was above 100 µM each time.
For `NC(=O)c1ccccc1NC(=O)C(=O)Nc1n[nH]c(N)n1`, the TGI in assay [1], in assay [2], in assay [3], in assay [4], in assay [5] and in assay [6] was above 100 µM in each case. Further, the TGI in assay [7], in assay [8], in assay [9], in assay [10], in [11] and in [13] was above 100 µM each time. Further, the TGI in assay [16], in assay [14] and in assay [15] was above 100 µM each time.
For `O=C(Cc1nc2ccc(C(=O)c3ccccc3)cc2[nH]c1=O)C(=O)Nc1ccc(C(F)(F)F)cc1[N+](=O)[O-]`, the TGI in assay [1] is 91.8 µM; in assay [2], above 100 µM; in assay [3] it was above 100 µM; in assay [4] it was above 100 µM; in assay [5], above 100 µM; in assay [6] it was above 100 µM. Besides, the TGI in assay [7], in [8], in assay [9], in assay [10], in [11] and in [12] was above 100 µM throughout. The TGI in [13], in [16], in assay [14] and in assay [15] was above 100 µM in each case.

The record behind these values is PubChem BioAssay (NCI).
